Key:
Experiment in all cases: Weeding effect in post-emergence stage (greenhouse pot spray)
Format in all cases: in vivo
Abutilon theophrasti = system: Abutilon theophrasti
Procedure, shortened: (§1)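 Read-out: fresh-weight growth control rate scored 3 weeks after spraying, mean of three replicates. Plants treated at 2-3 leaf stage by spray tower, doses 500-15 g a.i./ha (500, 250, 125, 60, 15).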

Digitaria sanguinalis = system: Digitaria sanguinalis
Procedure, shortened: as §1

Echinochloa crusgalli = system: Echinochloa crusgalli
Procedure, shortened: as §1

Amaranthus retroflexus = system: Amaranthus retroflexus
Text: (§2) The activity level criteria for plant damage (i.e., growth control rate) are as follows:
(§3) The above growth control rates are fresh weight control rates.
(§4) Experiment on weeding effect in post-emergence stage: monocotyledonous and dicotyledonous weed seeds (Descurainia sophia, Capsella bursa-pastoris, Abutilon theophrasti, Galium aparine, Stellaria media, Lithospermum arvense, rorippa indica, Alopecurus aequalis, Beckmannia syzigachne, Sclerochloa dura, Phleum paniculatum, Bromus japonicus, Aegilops tauschii, Phalaris arundinacea, Amaranthus retroflexus, Chenopodiaceae, Commelina communis, Sonchus arvensis, convolvulus arvensis, Cirsium setosum, Solanum nigrum, Acalypha australis, Digitaria sanguinalis, Echinochloa crusgalli, Setaria viridis, Setaria glauca, Leptochloa chinensis, Monochoria vaginalis, Sagittaria trifolia, Scirpus juncoides, Cyperus rotundus, Cyperus iria, Cyperus difformis, Fimbristylis, Portulaca oleracea, Xanthium sibiricum, Pharbitis nil) and major crop seeds (wheat, corn, rice, soybean, cotton, oilseed rape, millet, sorghum, potato, sesame, ricinus) were placed in plastic pots filled with soil, then covered with 0.5-2 cm of soil, allowed to grow in a good greenhouse environment. After 2 weeks of sowing, the test plants were treated in the 2 to 3 leaf stage. The tested compounds of the present invention were respectively dissolved in acetone, then added with Tween 80 and 1.5 liter/ha of emulsifiable concentrate of methyl oleate as synergist, diluted with a certain amount of water to obtain a solution with a certain concentration, and sprayed with a spray tower onto the plants. After the application, the plants were cultured for 3 weeks in the greenhouse, and then the experimental results of the weeding were counted. The doses of the used compounds were 500, 250, 125, 60, 15 g a.i./ha, and the averages were obtained by repeating for three times.

Stellaria media = system: Stellaria media
Text: as §2, §3, §4

Setaria viridis = system: Setaria viridis
Procedure, shortened: as §1

Compound | Digitaria sanguinalis (activity level) (Digitaria sanguinalis; Table 2, dose 500 g a.i./ha) | Echinochloa crusgah (activity level) (Echinochloa crusgalli; Table 2, dose 500 g a.i./ha) | Amaranthus retroflexus (activity level) (Amaranthus retroflexus; Table 2, dose 500 g a.i./ha) | Abutilion theophrasti (activity level) (Abutilon theophrasti; Table 2, dose 250 g a.i./ha) | Amaranthus retroflexus (activity level) (Amaranthus retroflexus; Table 2, dose 250 g a.i./ha) | Echinochloa crusgah (activity level) (Echinochloa crusgalli; Table 2, dose 250 g a.i./ha) | other results
COC(C)C[S+]([O-])c1c(C(F)(F)F)ccc(C(=O)Nc2nnc(C)o2)c1F (centres unmarked) [Compound 1-447] | 5 (Level 5: growth control rate is above 85%) | 5 (Level 5: growth control rate is above 85%) | 5 (Level 5: growth control rate is above 85%) |  |  |  | Abutilion theophrasti (activity level) (Abutilon theophrasti; Table 2, dose 500 g a.i./ha): 5 (Level 5: growth control rate is above 85%); Stellaria media (activity level) (Stellaria media; Table 2, dose 500 g a.i./ha): 5 (Level 5: growth control rate is above 85%)
CCCCS(=O)(=O)c1c(C(F)(F)F)ccc(C(=O)Nc2nnc(C)o2)c1F [Compound 1-15] |  |  |  | 5 (Level 5: growth control rate is above 85%) | 5 (Level 5: growth control rate is above 85%) |  | Stellaria media (activity level) (Stellaria media; Table 2, dose 250 g a.i./ha): 5 (Level 5: growth control rate is above 85%)
Cc1nnc(NC(=O)c2ccc(C(F)(F)F)c([S+]([O-])CCCCl)c2F)o1 (centres unmarked) [Compound 1-414] |  |  |  | 5 (Level 5: growth control rate is above 85%) | 5 (Level 5: growth control rate is above 85%) | 5 (Level 5: growth control rate is above 85%) | Digitaria sanguinalis (activity level) (Digitaria sanguinalis; Table 2, dose 250 g a.i./ha): 5 (Level 5: growth control rate is above 85%)
Cc1nnc(NC(=O)c2ccc(C(F)(F)F)c([S+]([O-])CC(C)F)c2F)o1 (centres unmarked) [Compound 1-404] |  |  |  |  |  |  | Abutilion theophrasti (activity level) (Abutilon theophrasti; Table 2, dose 125 g a.i./ha): 5 (Level 5: growth control rate is above 85%); Digitaria sanguinalis (activity level) (Digitaria sanguinalis; Table 2, dose 125 g a.i./ha): 5 (Level 5: growth control rate is above 85%); Echinochloa crusgah (activity level) (Echinochloa crusgalli; Table 2, dose 125 g a.i./ha): 5 (Level 5: growth control rate is above 85%); Amaranthus retroflexus (activity level) (Amaranthus retroflexus; Table 2, dose 125 g a.i./ha): 5 (Level 5: growth control rate is above 85%)
Cc1nnc(NC(=O)c2ccc(C(F)(F)F)c([S+]([O-])CCC(F)(C(F)(F)F)C(F)(F)F)c2F)o1 (centres unmarked) [Compound 1-413] | 5 (Level 5: growth control rate is above 85%) | 5 (Level 5: growth control rate is above 85%) | 5 (Level 5: growth control rate is above 85%) |  |  |  | 
C=CCSc1c(C(F)(F)F)ccc(C(=O)Nc2nnc(C)o2)c1F [Compound 1-40] | 5 (Level 5: growth control rate is above 85%) | 5 (Level 5: growth control rate is above 85%) | 5 (Level 5: growth control rate is above 85%) |  |  |  | 
Cc1nnc(NC(=O)c2ccc(C(F)(F)F)c([S+]([O-])CCC(F)(F)C(F)(F)F)c2F)o1 (centres unmarked) [Compound 1-412] |  |  |  | 5 (Level 5: growth control rate is above 85%) | 5 (Level 5: growth control rate is above 85%) | 5 (Level 5: growth control rate is above 85%) | Digitaria sanguinalis (activity level) (Digitaria sanguinalis; Table 2, dose 250 g a.i./ha): 5 (Level 5: growth control rate is above 85%)
Cc1nnc(NC(=O)c2ccc(C(F)(F)F)c([S+]([O-])CCCF)c2F)o1 (centres unmarked) [Compound 1-403] |  |  |  |  |  |  | Abutilion theophrasti (activity level) (Abutilon theophrasti; Table 2, dose 125 g a.i./ha): 5 (Level 5: growth control rate is above 85%); Digitaria sanguinalis (activity level) (Digitaria sanguinalis; Table 2, dose 125 g a.i./ha): 5 (Level 5: growth control rate is above 85%); Echinochloa crusgah (activity level) (Echinochloa crusgalli; Table 2, dose 125 g a.i./ha): 5 (Level 5: growth control rate is above 85%); Amaranthus retroflexus (activity level) (Amaranthus retroflexus; Table 2, dose 125 g a.i./ha): 5 (Level 5: growth control rate is above 85%)
C#CCC[S+]([O-])c1c(C(F)(F)F)ccc(C(=O)Nc2nnc(C)o2)c1F (centres unmarked) [Compound 1-401] |  |  |  | 5 (Level 5: growth control rate is above 85%) | 5 (Level 5: growth control rate is above 85%) | 5 (Level 5: growth control rate is above 85%) | Digitaria sanguinalis (activity level) (Digitaria sanguinalis; Table 2, dose 250 g a.i./ha): 5 (Level 5: growth control rate is above 85%)
Cc1nnc(NC(=O)c2ccc(C(F)(F)F)c([S+]([O-])CCCC(F)(F)F)c2F)o1 (centres unmarked) [Compound 1-411] |  |  |  | 5 (Level 5: growth control rate is above 85%) | 5 (Level 5: growth control rate is above 85%) | 5 (Level 5: growth control rate is above 85%) | Digitaria sanguinalis (activity level) (Digitaria sanguinalis; Table 2, dose 250 g a.i./ha): 5 (Level 5: growth control rate is above 85%)
Cc1nnc(NC(=O)c2ccc(C(F)(F)F)c(SC(C)C)c2F)o1 [Compound 1-10] |  |  |  | 5 (Level 5: growth control rate is above 85%) | 5 (Level 5: growth control rate is above 85%) | 5 (Level 5: growth control rate is above 85%) | Stellaria media (activity level) (Stellaria media; Table 2, dose 250 g a.i./ha): 5 (Level 5: growth control rate is above 85%)
Cc1nnc(NC(=O)c2ccc(C(F)(F)F)c([S+]([O-])CCC3CC3)c2F)o1 (centres unmarked) [Compound 1-395] | 5 (Level 5: growth control rate is above 85%) | 5 (Level 5: growth control rate is above 85%) | 5 (Level 5: growth control rate is above 85%) |  |  |  | Abutilion theophrasti (activity level) (Abutilon theophrasti; Table 2, dose 500 g a.i./ha): 5 (Level 5: growth control rate is above 85%)
CCC(C)[S+]([O-])c1c(C(F)(F)F)ccc(C(=O)Nc2nnc(C)o2)c1F (mixture of isomers) [Compound 1-17] |  |  |  |  |  |  | Abutilon theophrasti (activity level) (Abutilon theophrasti; Table 3, dose 60 g a.i./ha): 5 (Level 5: growth control rate is above 85%); Digitaria sanguinahs (activity level) (Digitaria sanguinalis; Table 3, dose 60 g a.i./ha): 5 (Level 5: growth control rate is above 85%); Setaria viridis (activity level) (Setaria viridis; Table 3, dose 60 g a.i./ha): 5 (Level 5: growth control rate is above 85%)
CC#CC[S+]([O-])c1c(C(F)(F)F)ccc(C(=O)Nc2nnc(C)o2)c1F (centres unmarked) [Compound 1-402] |  |  |  | 5 (Level 5: growth control rate is above 85%) | 5 (Level 5: growth control rate is above 85%) | 5 (Level 5: growth control rate is above 85%) | Digitaria sanguinalis (activity level) (Digitaria sanguinalis; Table 2, dose 250 g a.i./ha): 5 (Level 5: growth control rate is above 85%)
CC(C)=NOCCSc1c(C(F)(F)F)ccc(C(=O)Nc2nnc(C)o2)c1F [Compound 1-144] |  | 5 (Level 5: growth control rate is above 85%) | 5 (Level 5: growth control rate is above 85%) |  |  |  | Abutilion theophrasti (activity level) (Abutilon theophrasti; Table 2, dose 500 g a.i./ha): 5 (Level 5: growth control rate is above 85%); Stellaria media (activity level) (Stellaria media; Table 2, dose 500 g a.i./ha): 5 (Level 5: growth control rate is above 85%)
Cc1nnc(NC(=O)c2ccc(C(F)(F)F)c([S+]([O-])CCCC#N)c2F)o1 (centres unmarked) [Compound 1-428] | 5 (Level 5: growth control rate is above 85%) | 5 (Level 5: growth control rate is above 85%) | 5 (Level 5: growth control rate is above 85%) |  |  |  | Abutilion theophrasti (activity level) (Abutilon theophrasti; Table 2, dose 500 g a.i./ha): 5 (Level 5: growth control rate is above 85%)
Cc1nnc(NC(=O)c2ccc(C(F)(F)F)c([S@@+]([O-])CC(C)F)c2F)o1 (some centres unmarked) [1-404 (R-configuration)] |  |  |  |  |  |  | Digitaria sanguinahs (activity level) (Digitaria sanguinalis; Table 3, dose 60 g a.i./ha): 5 (Level 5: growth control rate is above 85%); Echinochloa crusgali (activity level) (Echinochloa crusgalli; Table 3, dose 60 g a.i./ha): 5 (Level 5: growth control rate is above 85%); Setaria viridis (activity level) (Setaria viridis; Table 3, dose 60 g a.i./ha): 5 (Level 5: growth control rate is above 85%)
Cc1nnc(NC(=O)c2ccc(C(F)(F)F)c([S+]([O-])CCC#N)c2F)o1 (centres unmarked) [Compound 1-427] | 5 (Level 5: growth control rate is above 85%) | 5 (Level 5: growth control rate is above 85%) | 5 (Level 5: growth control rate is above 85%) |  |  |  | Abutilion theophrasti (activity level) (Abutilon theophrasti; Table 2, dose 500 g a.i./ha): 5 (Level 5: growth control rate is above 85%)
C#CCC[S@@+]([O-])c1c(C(F)(F)F)ccc(C(=O)Nc2nnc(C)o2)c1F [1-401 (R-configuration)] |  |  |  |  |  |  | Digitaria sanguinahs (activity level) (Digitaria sanguinalis; Table 3, dose 500 g a.i./ha): 5 (Level 5: growth control rate is above 85%); Echinochloa crusgali (activity level) (Echinochloa crusgalli; Table 3, dose 500 g a.i./ha): 5 (Level 5: growth control rate is above 85%); Setaria viridis (activity level) (Setaria viridis; Table 3, dose 500 g a.i./ha): 5 (Level 5: growth control rate is above 85%)

Source: US20230041563A1, “N-(1,3,4-OXADIAZOL-2-YL)ARYLCARBOXAMIDES OR SALTS THEREOF, PREPARATION METHODS, HERBICIDAL COMPOSITIONS AND USES THEREOF” (priority 2018, published 2023)
